Test results from article PMC7265341, “Quantifying CDK inhibitor selectivity in live cells” (Nature Communications, 2020).
Like-named read-outs stand apart in the source and are kept apart here.

How the values were obtained:
[1] = molecular target: CDK14/Cyclin Y (Homo sapiens, UniProt O94921); assay: NanoBRET live-cell target engagement, CDK14-NanoLuc/Cyclin Y in HEK-293; format: binding; settings: 10µM, read-out: CDK14/Y Inhibition at 10µM (%)
[2] = molecular target: CDK6/Cyclin D1 (Homo sapiens, UniProt Q00534); assay: NanoBRET live-cell target engagement, NanoLuc-CDK6/Cyclin D1 in HEK-293; format: binding; settings: 10µM, read-out: CDK6/D1 Inhibition at 10µM (%)
[3] = molecular target: CDK10/Cyclin L2 (Homo sapiens, UniProt Q15131); assay: NanoBRET live-cell target engagement, CDK10-NanoLuc/Cyclin L2 in HEK-293; settings: read-out: CDK10/L2 Inhibition at 10µM (%), 10µM
Chain of CDK10/Cyclin L2 (Q15131 whole entry): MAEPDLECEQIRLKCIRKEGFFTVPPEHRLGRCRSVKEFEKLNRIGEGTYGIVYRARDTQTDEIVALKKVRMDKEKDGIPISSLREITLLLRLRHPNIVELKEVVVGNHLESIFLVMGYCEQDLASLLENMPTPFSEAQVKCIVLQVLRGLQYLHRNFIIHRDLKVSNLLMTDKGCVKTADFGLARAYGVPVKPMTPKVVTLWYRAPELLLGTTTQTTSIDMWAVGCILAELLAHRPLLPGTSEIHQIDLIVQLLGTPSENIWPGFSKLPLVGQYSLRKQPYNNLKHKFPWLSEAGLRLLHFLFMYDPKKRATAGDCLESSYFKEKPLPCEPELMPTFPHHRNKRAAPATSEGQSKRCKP

[4] = molecular target: CDK9/Cyclin K (Homo sapiens, UniProt P50750); assay: NanoBRET live-cell target engagement, NanoLuc-CDK9/Cyclin K in HEK-293; format: binding; settings: 10µM, read-out: CDK9/K Inhibition at 10µM (%)
[5] = molecular target: CDK5/CDK5R1 (Homo sapiens, UniProt Q00535); assay: NanoBRET live-cell target engagement, CDK5-NanoLuc/CDK5R1 in HEK-293; format: binding; settings: 10µM, read-out: CDK5/CDK5R1 Inhibition at 10µM (%)
Chain of CDK5/CDK5R1 (Q00535 whole entry): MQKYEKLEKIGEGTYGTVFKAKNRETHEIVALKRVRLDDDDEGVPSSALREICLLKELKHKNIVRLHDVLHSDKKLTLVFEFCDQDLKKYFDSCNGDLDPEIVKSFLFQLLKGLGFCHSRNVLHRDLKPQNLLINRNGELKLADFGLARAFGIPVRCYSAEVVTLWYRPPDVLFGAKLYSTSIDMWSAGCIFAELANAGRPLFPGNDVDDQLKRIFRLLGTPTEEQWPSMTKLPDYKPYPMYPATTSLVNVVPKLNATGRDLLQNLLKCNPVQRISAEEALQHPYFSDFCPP
Chain of CDK5/CDK5R1 (Q15078 whole entry partner): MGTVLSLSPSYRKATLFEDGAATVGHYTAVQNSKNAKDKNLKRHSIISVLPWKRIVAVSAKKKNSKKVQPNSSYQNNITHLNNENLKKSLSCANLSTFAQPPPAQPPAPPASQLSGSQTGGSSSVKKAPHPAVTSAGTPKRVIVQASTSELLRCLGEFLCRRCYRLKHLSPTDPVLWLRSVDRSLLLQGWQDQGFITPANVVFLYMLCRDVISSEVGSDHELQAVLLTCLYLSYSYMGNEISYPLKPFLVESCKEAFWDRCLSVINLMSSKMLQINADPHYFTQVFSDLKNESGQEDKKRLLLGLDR

[6] = molecular target: CDK16/Cyclin Y (Homo sapiens, UniProt Q00536); assay: NanoBRET live-cell target engagement, CDK16-NanoLuc/Cyclin Y in HEK-293; format: binding; settings: 10µM, read-out: CDK16/Y Inhibition at 10µM (%)
[7] = molecular target: CDK12/Cyclin K (Homo sapiens, UniProt Q9NYV4); assay: NanoBRET live-cell target engagement, CDK12-NanoLuc/Cyclin K in HEK-293; format: binding; settings: for inhibition at 10 µM: read-out: CDK12/K Inhibition at 10µM (%)
[8] = molecular target: CDK4/Cyclin D1 (Homo sapiens, UniProt P11802); assay: NanoBRET live-cell target engagement, NanoLuc-CDK4/Cyclin D1 in HEK-293; format: binding; settings: 10µM, read-out: CDK4/D1 Inhibition at 10µM (%)
Chain of CDK4/Cyclin D1 (P11802 whole entry): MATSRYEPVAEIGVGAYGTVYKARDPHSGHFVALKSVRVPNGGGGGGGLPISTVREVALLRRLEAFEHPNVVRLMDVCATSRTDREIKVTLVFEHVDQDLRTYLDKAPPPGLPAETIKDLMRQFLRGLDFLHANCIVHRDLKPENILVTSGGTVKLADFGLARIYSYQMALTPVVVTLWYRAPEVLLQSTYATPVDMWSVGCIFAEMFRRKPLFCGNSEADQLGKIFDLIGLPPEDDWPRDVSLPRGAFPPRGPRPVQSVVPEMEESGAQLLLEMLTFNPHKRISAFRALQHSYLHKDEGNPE
Chain of CDK4/Cyclin D1 (P24385 whole entry partner): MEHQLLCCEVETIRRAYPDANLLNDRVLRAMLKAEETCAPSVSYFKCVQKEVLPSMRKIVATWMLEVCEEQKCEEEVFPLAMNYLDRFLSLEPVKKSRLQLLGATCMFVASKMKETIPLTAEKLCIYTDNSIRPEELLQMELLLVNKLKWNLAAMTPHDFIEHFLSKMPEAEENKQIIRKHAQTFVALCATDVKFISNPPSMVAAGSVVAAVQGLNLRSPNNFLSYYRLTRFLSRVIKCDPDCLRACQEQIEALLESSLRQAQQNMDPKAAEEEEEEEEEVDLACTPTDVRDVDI

[9] = molecular target: T1, CDK11A/Cyclin L2 (Homo sapiens, UniProt Q9UQ88); assay: NanoBRET live-cell target engagement, CDK11A-NanoLuc/Cyclin L2 in HEK-293; format: binding; settings: 10µM, read-out: CDK11a/L2 Inhibition at 10µM (%)
T1 sequence (Q9UQ88 1-783): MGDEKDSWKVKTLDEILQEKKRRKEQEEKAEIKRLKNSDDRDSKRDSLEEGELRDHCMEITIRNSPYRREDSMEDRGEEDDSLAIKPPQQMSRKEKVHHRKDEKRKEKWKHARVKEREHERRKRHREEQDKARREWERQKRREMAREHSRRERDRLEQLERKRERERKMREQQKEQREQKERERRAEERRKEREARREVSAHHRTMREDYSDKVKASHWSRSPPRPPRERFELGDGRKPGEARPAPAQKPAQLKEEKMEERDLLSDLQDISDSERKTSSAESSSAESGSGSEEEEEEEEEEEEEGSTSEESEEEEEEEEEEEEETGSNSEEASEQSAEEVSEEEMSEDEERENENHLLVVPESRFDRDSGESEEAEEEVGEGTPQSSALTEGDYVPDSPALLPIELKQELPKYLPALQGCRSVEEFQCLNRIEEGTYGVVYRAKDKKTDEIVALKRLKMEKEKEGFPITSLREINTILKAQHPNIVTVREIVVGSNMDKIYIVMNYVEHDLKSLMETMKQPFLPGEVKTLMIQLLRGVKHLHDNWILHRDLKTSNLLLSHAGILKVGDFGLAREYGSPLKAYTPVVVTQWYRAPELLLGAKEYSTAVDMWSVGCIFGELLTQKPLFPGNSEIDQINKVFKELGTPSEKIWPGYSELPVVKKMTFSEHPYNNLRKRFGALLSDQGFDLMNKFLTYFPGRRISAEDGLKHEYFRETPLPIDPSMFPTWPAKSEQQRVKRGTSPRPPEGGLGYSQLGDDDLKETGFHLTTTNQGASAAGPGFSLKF

[10] = molecular target: CDK13/Cyclin K (Homo sapiens, UniProt Q14004); assay: NanoBRET live-cell target engagement, CDK13-NanoLuc/Cyclin K in HEK-293; format: binding; settings: for inhibition at 10 µM: read-out: CDK13/K Inhibition at 10µM (%)
[11] = molecular target: CDK8/Cyclin C (Homo sapiens, UniProt P49336); assay: NanoBRET live-cell target engagement, NanoLuc-CDK8/Cyclin C in HEK-293; format: binding; settings: 10µM, read-out: CDK8/C Inhibition at 10µM (%)
[12] = molecular target: CDK2/Cyclin E1 (Homo sapiens, UniProt P24941); assay: NanoBRET live-cell target engagement, CDK2-NanoLuc/Cyclin E1 in HEK-293; format: binding; settings: 10µM, read-out: CDK2/E1 Inhibition at 10µM (%)
[13] = molecular target: CDK18/Cyclin Y (Homo sapiens, UniProt Q07002); assay: NanoBRET live-cell target engagement, CDK18-NanoLuc/Cyclin Y in HEK-293; format: binding; settings: 10µM, read-out: CDK18/Y Inhibition at 10µM (%)
Chain of CDK18/Cyclin Y (Q07002 whole entry): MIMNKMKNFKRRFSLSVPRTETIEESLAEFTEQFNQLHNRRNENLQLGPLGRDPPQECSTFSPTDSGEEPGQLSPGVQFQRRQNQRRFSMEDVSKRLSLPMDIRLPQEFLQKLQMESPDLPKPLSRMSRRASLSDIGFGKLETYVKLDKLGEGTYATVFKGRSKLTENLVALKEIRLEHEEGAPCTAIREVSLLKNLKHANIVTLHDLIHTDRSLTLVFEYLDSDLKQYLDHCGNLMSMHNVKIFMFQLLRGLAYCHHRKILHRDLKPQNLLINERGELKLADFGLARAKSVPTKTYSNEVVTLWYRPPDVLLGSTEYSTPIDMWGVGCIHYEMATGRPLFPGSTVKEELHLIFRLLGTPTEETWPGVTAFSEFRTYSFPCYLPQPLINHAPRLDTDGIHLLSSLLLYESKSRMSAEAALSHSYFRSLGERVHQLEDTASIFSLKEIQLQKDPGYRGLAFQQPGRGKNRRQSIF
Chain of CDK18/Cyclin Y (Q8ND76 whole entry partner): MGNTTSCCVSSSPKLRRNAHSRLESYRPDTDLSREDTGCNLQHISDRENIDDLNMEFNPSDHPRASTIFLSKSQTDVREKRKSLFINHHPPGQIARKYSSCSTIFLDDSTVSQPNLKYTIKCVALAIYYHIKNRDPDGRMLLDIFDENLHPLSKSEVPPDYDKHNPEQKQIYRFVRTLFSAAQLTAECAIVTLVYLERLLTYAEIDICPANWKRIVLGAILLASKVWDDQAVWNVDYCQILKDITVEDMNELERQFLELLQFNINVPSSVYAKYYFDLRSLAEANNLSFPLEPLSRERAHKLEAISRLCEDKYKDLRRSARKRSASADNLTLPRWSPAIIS

[14] = molecular target: CDK20/Cyclin H (Homo sapiens, UniProt Q8IZL9); assay: NanoBRET live-cell target engagement, NanoLuc-CDK20/Cyclin H in HEK-293; format: binding; settings: 10µM, read-out: CDK20/H Inhibition at 10µM (%)
[15] = molecular target: CDK11B/Cyclin L2 (Homo sapiens, UniProt P21127); assay: NanoBRET live-cell target engagement, CDK11B-NanoLuc/Cyclin L2 in HEK-293; format: binding; settings: 10µM, read-out: CDK11b/L2 Inhibition at 10µM (%)
Chain of CDK11B/Cyclin L2 (P21127 1-782 isoform P21127-2): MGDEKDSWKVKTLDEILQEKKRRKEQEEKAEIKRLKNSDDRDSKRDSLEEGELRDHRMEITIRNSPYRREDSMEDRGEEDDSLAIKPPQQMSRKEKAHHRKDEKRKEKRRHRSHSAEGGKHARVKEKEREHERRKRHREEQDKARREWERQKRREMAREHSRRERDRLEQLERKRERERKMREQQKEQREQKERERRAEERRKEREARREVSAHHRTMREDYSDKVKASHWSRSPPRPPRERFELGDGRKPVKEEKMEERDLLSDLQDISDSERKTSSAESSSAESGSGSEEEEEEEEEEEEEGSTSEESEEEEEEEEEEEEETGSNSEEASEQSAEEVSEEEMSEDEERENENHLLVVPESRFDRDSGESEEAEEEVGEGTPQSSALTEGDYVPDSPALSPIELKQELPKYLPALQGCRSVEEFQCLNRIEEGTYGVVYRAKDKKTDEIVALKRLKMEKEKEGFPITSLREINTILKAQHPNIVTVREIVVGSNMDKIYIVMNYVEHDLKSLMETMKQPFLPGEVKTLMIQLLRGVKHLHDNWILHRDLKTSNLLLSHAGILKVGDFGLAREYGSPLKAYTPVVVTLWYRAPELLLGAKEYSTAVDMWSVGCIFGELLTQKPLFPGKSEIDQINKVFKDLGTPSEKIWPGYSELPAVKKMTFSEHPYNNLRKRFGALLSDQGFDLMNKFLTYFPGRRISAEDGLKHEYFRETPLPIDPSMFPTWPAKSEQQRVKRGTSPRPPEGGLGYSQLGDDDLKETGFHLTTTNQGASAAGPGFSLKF

[16] = molecular target: CDK15/Cyclin Y (Homo sapiens, UniProt Q96Q40); assay: NanoBRET live-cell target engagement, NanoLuc-CDK15/Cyclin Y in HEK-293; format: binding; settings: 10µM, read-out: CDK15/Y Inhibition at 10µM (%)
[17] = molecular target: CDK19/Cyclin C (Homo sapiens, UniProt Q9BWU1); assay: NanoBRET live-cell target engagement, NanoLuc-CDK19/Cyclin C in HEK-293; settings: read-out: CDK19/C Inhibition at 10µM (%), 10µM
Chain of CDK19/Cyclin C (Q9BWU1 whole entry): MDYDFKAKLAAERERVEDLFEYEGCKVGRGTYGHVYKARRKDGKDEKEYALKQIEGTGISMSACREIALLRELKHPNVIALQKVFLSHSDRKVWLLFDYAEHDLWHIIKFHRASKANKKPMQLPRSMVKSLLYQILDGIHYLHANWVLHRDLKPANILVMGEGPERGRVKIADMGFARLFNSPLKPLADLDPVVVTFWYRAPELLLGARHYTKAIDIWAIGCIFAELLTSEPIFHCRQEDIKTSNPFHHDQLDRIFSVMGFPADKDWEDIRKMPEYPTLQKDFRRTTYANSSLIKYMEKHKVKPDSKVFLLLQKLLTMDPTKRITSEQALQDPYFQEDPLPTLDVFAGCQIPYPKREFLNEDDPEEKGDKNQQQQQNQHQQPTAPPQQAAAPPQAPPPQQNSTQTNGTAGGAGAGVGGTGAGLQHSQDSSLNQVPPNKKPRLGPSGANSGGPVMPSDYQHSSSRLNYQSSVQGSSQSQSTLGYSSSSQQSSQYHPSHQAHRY
Chain of CDK19/Cyclin C (P24863 whole entry partner): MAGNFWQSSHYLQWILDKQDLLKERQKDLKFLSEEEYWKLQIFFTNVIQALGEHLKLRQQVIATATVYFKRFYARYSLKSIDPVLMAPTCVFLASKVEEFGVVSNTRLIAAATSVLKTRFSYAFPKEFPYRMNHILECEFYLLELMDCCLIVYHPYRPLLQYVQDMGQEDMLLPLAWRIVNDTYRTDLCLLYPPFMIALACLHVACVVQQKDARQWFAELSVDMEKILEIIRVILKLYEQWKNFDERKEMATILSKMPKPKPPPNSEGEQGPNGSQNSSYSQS

[18] = molecular target: CDK17/Cyclin Y (Homo sapiens, UniProt Q00537); assay: NanoBRET live-cell target engagement, CDK17-NanoLuc/Cyclin Y in HEK-293; format: binding; settings: 10µM, read-out: CDK17/Y Inhibition at 10µM (%)
[19] = molecular target: CDK1/Cyclin E1 (Homo sapiens, UniProt P06493); assay: NanoBRET live-cell target engagement, CDK1-NanoLuc/Cyclin E1 in HEK-293; format: binding; settings: 10µM, read-out: CDK1/E1 Inhibition at 10µM (%)
Chain of CDK1/Cyclin E1 (P06493 whole entry): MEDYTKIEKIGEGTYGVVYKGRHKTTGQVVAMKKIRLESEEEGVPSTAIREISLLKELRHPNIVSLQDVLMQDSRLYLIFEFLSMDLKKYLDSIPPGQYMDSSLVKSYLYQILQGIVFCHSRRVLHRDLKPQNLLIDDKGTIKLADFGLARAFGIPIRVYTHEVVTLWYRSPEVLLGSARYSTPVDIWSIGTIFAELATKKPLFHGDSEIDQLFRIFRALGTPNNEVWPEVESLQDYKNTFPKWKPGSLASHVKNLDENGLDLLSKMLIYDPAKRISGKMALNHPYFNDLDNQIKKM
Chain of CDK1/Cyclin E1 (P24864 whole entry partner): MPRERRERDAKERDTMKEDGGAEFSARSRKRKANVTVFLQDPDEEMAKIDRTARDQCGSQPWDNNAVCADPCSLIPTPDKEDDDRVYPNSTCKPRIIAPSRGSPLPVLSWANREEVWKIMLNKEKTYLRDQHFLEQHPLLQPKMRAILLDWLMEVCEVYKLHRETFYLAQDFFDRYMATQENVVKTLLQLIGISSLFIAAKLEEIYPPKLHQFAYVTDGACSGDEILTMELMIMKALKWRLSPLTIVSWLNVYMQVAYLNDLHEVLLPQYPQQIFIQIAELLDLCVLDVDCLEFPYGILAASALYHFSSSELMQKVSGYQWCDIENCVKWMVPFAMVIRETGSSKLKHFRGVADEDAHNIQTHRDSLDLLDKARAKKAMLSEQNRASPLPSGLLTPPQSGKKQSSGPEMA

CN(C)C/C=C/C(=O)Nc1ccc(C(=O)N2CCC[C@@H](Nc3ncc(Cl)c(-c4c[nH]c5ccccc45)n3)C2)cc1 [THZ531]
inhibition at 10 µM ([1]; average of experiments): 41.8%
inhibition at 10 µM ([1]; independent experiment 1): 22.4%
inhibition at 10 µM ([1]; independent experiment 2): 61.2%
inhibition at 10 µM ([2]; average of experiments): 36.6%
inhibition at 10 µM ([2]; independent experiment 1): 32%
inhibition at 10 µM ([2]; independent experiment 2): 41.3%
inhibition at 10 µM ([3]; average of experiments): 51%
inhibition at 10 µM ([3]; independent experiment 1): 41.2%
inhibition at 10 µM ([3]; independent experiment 2): 60.7%
inhibition at 10 µM ([4]; average of experiments): 81.1%
inhibition at 10 µM ([4]; independent experiment 1): 78.5%
inhibition at 10 µM ([4]; independent experiment 2): 83.8%
inhibition at 10 µM ([5]; average of experiments): 45.3%
inhibition at 10 µM ([5]; independent experiment 1): 30.8%
inhibition at 10 µM ([5]; independent experiment 2): 59.9%
inhibition at 10 µM ([6]; independent experiment 1): 75.1%
inhibition at 10 µM ([6]; independent experiment 2): 49.9%
inhibition at 10 µM ([7]; average of experiments): 65.1%
inhibition at 10 µM ([7]; independent experiment 1): 75.9%
inhibition at 10 µM ([7]; independent experiment 2): 54.3%
IC50 ([7]; independent experiment 1, read-out: CDK12/K IC50): 540 nM
IC50 ([7]; independent experiment 2, read-out: CDK12/K IC50): 1000 nM
IC50 ([7]; live HEK-293, 2 h, mean ± S.E.M. (n=3) or mean (n=2), read-out: IC50 for CDK/cyclin complexes, CDK12/K): 770 nM
IC50 ([7]; live HEK-293, read-out: CDK12 engagement potency): < 1000 nM
CDK12 occupancy at 10 µM ([7]; primary screen, live HEK-293): occupied
receptor occupancy at 10 µM ([7]; read-out: CDK12 occupancy at 10 µM): ~50%
inhibition at 10 µM ([8]; average of experiments): 54.6%
inhibition at 10 µM ([8]; independent experiment 1): 47.7%
inhibition at 10 µM ([8]; independent experiment 2): 61.5%
inhibition at 10 µM ([9]; average of experiments): 46.9%
inhibition at 10 µM ([9]; independent experiment 1): 27.8%
inhibition at 10 µM ([9]; independent experiment 2): 65.9%
inhibition at 10 µM ([10]; average of experiments): 53.1%
inhibition at 10 µM ([10]; independent experiment 1): 48.6%
inhibition at 10 µM ([10]; independent experiment 2): 57.6%
IC50 ([10]; live HEK-293, response to reviewers, read-out: CDK13 IC50 (follow up)): ~2000 nM
CDK13 occupancy at 10 µM ([10]; primary screen, live HEK-293): occupied
receptor occupancy at 10 µM ([10]; primary screen, live HEK-293): ~50%
inhibition at 10 µM ([11]; average of experiments): 41%
inhibition at 10 µM ([11]; independent experiment 1): 30.9%
inhibition at 10 µM ([11]; independent experiment 2): 51.2%
inhibition at 10 µM ([12]; average of experiments): 52.7%
inhibition at 10 µM ([12]; independent experiment 1): 46.1%
inhibition at 10 µM ([12]; independent experiment 2): 59.3%
inhibition at 10 µM ([13]; average of experiments): 64.6%
inhibition at 10 µM ([13]; independent experiment 1): 71.7%
inhibition at 10 µM ([13]; independent experiment 2): 57.6%
inhibition at 10 µM ([14]; independent experiment 1): 30.9%
inhibition at 10 µM ([14]; independent experiment 2): 52.4%
inhibition at 10 µM ([15]; average of experiments): 32.4%
inhibition at 10 µM ([15]; independent experiment 1): 30%
inhibition at 10 µM ([15]; independent experiment 2): 34.7%
inhibition at 10 µM ([16]; average of experiments): 80.5%
inhibition at 10 µM ([16]; independent experiment 1): 75.6%
inhibition at 10 µM ([16]; independent experiment 2): 85.5%
inhibition at 10 µM ([17]; average of experiments): 55.3%
inhibition at 10 µM ([17]; independent experiment 1): 58.1%
inhibition at 10 µM ([17]; independent experiment 2): 52.6%
inhibition at 10 µM ([18]; average of experiments): 63%
inhibition at 10 µM ([18]; independent experiment 1): 73.4%
inhibition at 10 µM ([18]; independent experiment 2): 52.6%
inhibition at 10 µM ([19]; average of experiments): 61.4%
inhibition at 10 µM ([19]; independent experiment 1): 48.6%
inhibition at 10 µM ([19]; independent experiment 2): 74.1%
